Results as given in patent US8642640B2, “1-phenylpyrrole derivatives” (Exelixis, Inc., priority 2008, dated 2014).

Biological target: T1, human mineralocorticoid receptor (hMR) (Homo sapiens, UniProt P08235)
T1 construct: expressed in transfected cells; host or cells: HEK293
T1 sequence (P08235 726-964 limits assumed): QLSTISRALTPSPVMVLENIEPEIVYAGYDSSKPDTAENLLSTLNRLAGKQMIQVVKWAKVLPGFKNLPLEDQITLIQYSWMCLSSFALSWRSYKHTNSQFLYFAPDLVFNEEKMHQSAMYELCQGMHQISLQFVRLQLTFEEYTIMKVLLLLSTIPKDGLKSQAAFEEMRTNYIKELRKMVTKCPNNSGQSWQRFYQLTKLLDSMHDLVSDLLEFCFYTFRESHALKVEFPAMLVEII
Assay: GAL4-hMR-LBD luciferase reporter assay in HEK293 cells with 1 nM aldosterone (Test Example 1);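 on Imax: 0% is DMSO-only control and 100% is 1 nM aldosterone alone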
Assay type: cell-based
Conditions: for IC50: concentration showing Imax/2, HEK293, GAL4-hMR-LBD, 1 nM aldosterone, overnight, read-out: ICmax50; for Emax: HEK293, read-out: Imax
Description: A plasmid pM-hMR-LBD expressing GAL4-hMR receptor, which has a ligand binding domain (LBD, corresponding to approximately 308 amino acids at the carboxy terminus) of human mineralocorticoid receptor (hMR, NM_000901) bonded to a DNA binding domain of yeast transcription factor GAL4 (corresponding to 147 amino acids at the amino terminus), was prepared. Reporter assay was conducted by using a reporter plasmid (such as plasmid pFR-Luc of […] CLONING SYSTEMS) including a luciferase gene, having a sequence (UAS sequence) which binds to the DNA binding domain of GAL4.
The plasmid pM-hMR-LBD and the reporter plasmid as obtained above were gene transferred into renal cell line HEK293 of human fetus by lipofection. On the next day, cells were collected by trypsin treatment, and dispensed with DMEM culture medium containing 5% of FBS treated by activated charcoal, to a white 96-well plate (Costar) with the amount of 95 microliter per well.
The test compounds were used as dissolved in dimethyl sulfoxide at a predetermined concentration, and the test compounds suitably diluted with culture media were added to the cells on the white 96-well plate so that the final concentration becomes 0.1%. […] After the addition, cultivation was carried out overnight.
On the next day, the culture media was removed, and then luciferase substrate (Wako Pure Chemical Industries, Ltd.) was prepared in accordance with the attached document and were added to each well by 50 microliters. Stirring was conducted for approximately 30 minutes, and the amount of luminescence was measured for each well by using Analyst (Molecular Devices), to obtain luciferase activity. A graph which plots relative luciferase activity values, when the luciferase activity value of Control group 1 was taken as 0% and the luciferase activity value of Control group 2 was taken as 100%, for each of the amount of the test compound addition group was made.

| SMILES | IC50 [nM] | Emax [%] |
| --- | --- | --- |
| Cc1c(C(=O)Nc2ccc(S(C)(=O)=O)cc2)cc(CCO)n1-c1ccc(Cl)cc1C(F)(F)F (single isomer, unassigned) [Example 1 - isomer B, 1-[4-Chloro-2-(trifluoromethyl)phenyl]-5-(2-hydroxyethyl)-2-methyl-N-[4-(methylsulfonyl)phenyl]-1H-pyrrole-3-carboxamide] | > 1000 |  |
| Cc1c(C(=O)Nc2ccc(S(C)(=O)=O)cc2)cc(CCO)n1-c1ccc(F)cc1Cl (single isomer, unassigned) [Example 3 - isomer A, 1-(2-Chloro-4-fluorophenyl)-5-(2-hydroxyethyl)-2-methyl-N-[4-(methylsulfonyl)phenyl]-1H-pyrrole-3-carboxamide] | 21 | 114 |
| Cc1c(C(=O)Nc2ccc(S(C)(=O)=O)cc2)cc(C[C@H](C)O)n1-c1ccc(Cl)cc1C(F)(F)F (single isomer, unassigned) [Example 6 - isomer B] | > 1000 |  |
| Cc1c(C(=O)Nc2ccc(S(N)(=O)=O)c(Cl)c2)cc(C[C@H](C)O)n1-c1ccc(F)cc1C(F)(F)F (single isomer, unassigned) [Example 12 - isomer A] | 3.1 | 113 |
| Cc1cc(NC(=O)c2cc(C[C@H](C)O)n(-c3ccc(F)cc3OC(F)F)c2C)ccc1S(C)(=O)=O (single isomer, unassigned) [Example 22 - isomer A] | 6.1 | 99 |
| Cc1cc(NC(=O)c2cc(C[C@H](C)O)n(-c3ccc(F)cc3OC(F)F)c2C)ccc1S(C)(=O)=O (single isomer, unassigned) [Example 22 - isomer B] | > 1000 |  |
| Cc1c(C(=O)Nc2ccc(S(C)(=O)=O)cc2)cc(C[C@H](C)O)n1-c1ccc(Cl)cc1-c1ccc(F)cc1 (single isomer, unassigned) [Example 50 - isomer A] | > 1000 |  |
| Cc1c(C(=O)Nc2ccc(S(C)(=O)=O)cc2)cc(C[C@H](C)O)n1-c1ccc(Cl)cc1-c1ccc(F)cc1 (single isomer, unassigned) [Example 50 - isomer B] | 1.2 | 104 |
| Cc1c(C(=O)Nc2ccc(S(C)(=O)=O)cc2)cc(CCF)n1-c1ccc(F)cc1OC(F)F (single isomer, unassigned) [Example 54 - isomer B, 1-[2-(Difluoromethoxy)-4-fluorophenyl]-5-(2-fluoroethyl)-2-methyl-N-[4-(methylsulfonyl)phenyl]-1H-pyrrole-3-carboxamide] | > 1000 |  |
| Cc1c(C(=O)Nc2ccc(S(C)(=O)=O)cc2)cc(CCO)n1-c1ccc(Cl)cc1C(F)(F)F [Example 1, 1-[4-Chloro-2-(trifluoromethyl)phenyl]-5-(2-hydroxyethyl)-2-methyl-N-[4-(methylsulfonyl)phenyl]-1H-pyrrole-3-carboxamide] | 11 | 110 |
| Cc1c(C(=O)Nc2ccc(S(C)(=O)=O)cc2)cc(C[C@H](C)O)n1-c1ccc(Cl)cc1C(F)(F)F [Example 6, 1-[4-Chloro-2-(trifluoromethyl)phenyl]-5-[(2S)-2-hydroxypropyl]-2-methyl-N-[4-(methylsulfonyl)phenyl]-1H-pyrrole-3-carboxamide] | 6.2 | 92 |
| Cc1c(C(=O)Nc2ccc(S(C)(=O)=O)cc2)cc(C[C@H](C)O)n1-c1ccc(F)cc1OC(F)F [Example 9, 1-[2-(Difluoromethoxy)-4-fluorophenyl]-5-[(2S)-2-hydroxypropyl]-2-methyl-N-[4-(methylsulfonyl)phenyl]-1H-pyrrole-3-carboxamide] | 41 | 114 |
| Cc1c(C(=O)Nc2ccc(S(N)(=O)=O)c(Cl)c2)cc(C[C@H](C)O)n1-c1ccc(F)cc1C(F)(F)F [Example 12, N-[4-(Aminosulfonyl)-3-chlorophenyl]-1-[4-fluoro-2-(trifluoromethyl)phenyl]-5-[(2S)-2-hydroxypropyl]-2-methyl-1H-pyrrole-3-carboxamide] | 6.8 | 108 |

Second part, the molecule after the results:

| IC50 [nM] | Emax [%] | SMILES |
| --- | --- | --- |
| > 1000 |  | Cc1c(C(=O)Nc2ccc(S(C)(=O)=O)cc2)cc(CCO)n1-c1ccc(F)cc1Cl (single isomer, unassigned) [Example 3 - isomer B, 1-(2-Chloro-4-fluorophenyl)-5-(2-hydroxyethyl)-2-methyl-N-[4-(methylsulfonyl)phenyl]-1H-pyrrole-3-carboxamide] |
| > 1000 |  | Cc1c(C(=O)Nc2ccc(S(C)(=O)=O)cc2)cc(C[C@H](C)O)n1-c1ccc(F)cc1C(F)(F)F (single isomer, unassigned) [Example 5 - isomer B] |
| > 1000 |  | Cc1c(C(=O)Nc2ccc(S(C)(=O)=O)cc2)cc(C[C@H](C)O)n1-c1ccc(F)cc1OC(F)F (single isomer, unassigned) [Example 9 - isomer B] |
| > 1000 |  | Cc1c(C(=O)Nc2ccc(S(C)(=O)=O)cc2)cc(C[C@H](C)O)n1-c1ccc(Cl)cc1OC(F)F (single isomer, unassigned) [Example 11 - isomer B] |
| > 1000 |  | Cc1c(C(=O)Nc2ccc(S(N)(=O)=O)c(Cl)c2)cc(C[C@H](C)O)n1-c1ccc(F)cc1C(F)(F)F (single isomer, unassigned) [Example 12 - isomer B] |
| > 1000 |  | Cc1c(C(=O)Nc2ccc(S(C)(=O)=O)cc2)cc(C[C@H](C)O)n1-c1ccc(F)cc1OC(F)(F)F (single isomer, unassigned) [Example 16 - isomer B] |
| > 1000 |  | Cc1c(C(=O)Nc2ccc(S(C)(=O)=O)cc2)cc(C[C@H](C)O)n1-c1ccc(F)cc1Cl (single isomer, unassigned) [Example 40 - isomer B] |
| > 1000 |  | Cc1c(C(=O)Nc2ccc(S(C)(=O)=O)cc2)cc(C[C@H](C)O)n1-c1ccc(Cl)cc1OC(F)(F)F (single isomer, unassigned) [Example 42 - isomer A] |
| > 1000 |  | Cc1c(C(=O)Nc2ccc(S(C)(=O)=O)cc2)cc(C[C@H](C)O)n1-c1ccc(Cl)cc1Cl (single isomer, unassigned) [Example 43 - isomer B] |
| > 1000 |  | CCc1c(C(=O)Nc2ccc(S(C)(=O)=O)cc2)cc(C[C@H](C)O)n1-c1ccc(F)cc1Cl (single isomer, unassigned) [Example 44 - isomer A] |
| 1.9 | 105 | Cc1c(C(=O)Nc2ccc(S(C)(=O)=O)cc2)cc(C[C@H](C)O)n1-c1ccc(Cl)cc1Oc1ccc(F)cc1 (single isomer, unassigned) [Example 45 - isomer A] |
| > 1000 |  | Cc1c(C(=O)Nc2ccc(S(C)(=O)=O)cc2)cc(C[C@H](C)O)n1-c1ccc(Cl)cc1Oc1ccc(F)cc1 (single isomer, unassigned) [Example 45 - isomer B] |
| > 1000 |  | Cc1c(C(=O)Nc2ccc(S(N)(=O)=O)c(Cl)c2)cc(C[C@H](C)O)n1-c1ccc(F)cc1Cl (single isomer, unassigned) [Example 49 - isomer A] |
| 4.5 | 104 | Cc1c(C(=O)Nc2ccc(S(N)(=O)=O)c(Cl)c2)cc(C[C@H](C)O)n1-c1ccc(F)cc1Cl (single isomer, unassigned) [Example 49 - isomer B] |
| > 1000 |  | Cc1cc(Cl)ccc1-n1c(CCF)cc(C(=O)Nc2ccc(S(C)(=O)=O)cc2)c1C (single isomer, unassigned) [Example 51 - isomer B, 1-(4-Chloro-2-methylphenyl)-5-(2-fluoroethyl)-2-methyl-N-[4-(methylsulfonyl)phenyl]-1H-pyrrole-3-carboxamide] |
| 30 | 109 | Cc1c(C(=O)Nc2ccc(S(C)(=O)=O)cc2)cc(CCO)n1-c1ccc(F)cc1Cl [Example 3, 1-(2-Chloro-4-fluorophenyl)-5-(2-hydroxyethyl)-2-methyl-N-[4-(methylsulfonyl)phenyl]-1H-pyrrole-3-carboxamide] |
| 3.9 | 125 | Cc1c(C(=O)Nc2ccc(S(C)(=O)=O)cc2)cc(C[C@H](C)O)n1-c1ccc(F)cc1C(F)(F)F [Example 5, 1-[4-Fluoro-2-(trifluoromethyl)phenyl]-5-[(2S)-2-hydroxypropyl]-2-methyl-N-[4-(methylsulfonyl)phenyl]-1H-pyrrole-3-carboxamide] |
| 13 | 107 | Cc1c(C(=O)Nc2ccc(S(C)(=O)=O)cc2)cc(C[C@H](C)O)n1-c1ccc(Cl)cc1OC(F)F [Example 11, 1-[4-Chloro-2-(difluoromethoxy)phenyl]-5-[(2S)-2-hydroxypropyl]-2-methyl-N-[4-(methylsulfonyl)phenyl]-1H-pyrrole-3-carboxamide] |
